From patent publication US4144242A, “Process for the purification of clavulanic acid” (Glaxo Laboratories Limited, priority 1975, dated 1979)
Where a name gives a salt, the structure may show the parent alone. Read-outs that look alike come from different tables or passages of the source.

Assays:
[1] = Uptake of atmospheric water (hygroscopicity); type: physicochemical
Procedure: The solid was hygroscopic. It was ground in a pestle and mortar and allowed to take up atmospheric water at 18° C. After about 22% (w/w) of water was taken up, an equilibrium was reached.

[2] = test system: gram-negative and gram-positive microorganisms; assay: Antibacterial activity; type: cell-based; conditions: range of gram-negative and gram-positive microorganisms
β-lactamase enzymes = assay: Inhibition of β-lactamase enzymes; type: biochemical, gram-positive and gram-negative bacteria
[3] = test system: β-lactamases produced by gram-positive organisms and by gram-negative organisms in classes I-V; assay: Stability to the action of β-lactamases; type: biochemical; conditions: β-lactamases of S. aureus, B. cereus and gram-negative classes I-V (Richmond and Sykes)
[4] = Stability in aqueous solution / on storage; type: physicochemical
[5] = Solubility of lithium clavulanate in aqueous lithium chloride; type: physicochemical; conditions: about 20° C., read-out: Solubility in mz/ml of lithium clavulanate (approximate)
Procedure: The eluate will normally contain the lithium salt, e.g. lithium chloride, at a concentration in the range 0.5 to 2.5M whereas, as indicated above, the salting out effect is most efficient at concentrations in the range 5M to 10 M. It is therefore preferred to concentrate the eluate, for example by evaporation in vacuo, e.g. by a factor of about 5. The solubility of lithium clavulanate at about 20° C. in various concentrations of aqueous lithium chloride is given in the following table: […]

[6] = pKa by potentiometric titration of the salt; type: physicochemical

## O=C(O)[C@H]1/C(=C/CO)O[C@@H]2CC(=O)N21 [sodium salt, sodium clavulanate]
[1]; crystalline solid
  hygroscopicity: hygroscopic
[1]; ground solid, atmospheric water at 18° C.
  water taken up at equilibrium: about 22 % (w/w)

## O=C(O)[C@H]1/C(=C/CO)O[C@@H]2CC(=O)N21 [clavulanic acid, (2R, 5R, Z)-3-(2-hydroxyethylidene)-7-oxo-4-oxa-1-azabicyclo[3,2,0]heptane-2-carboxylic acid]
[2]
  antibacterial activity: have antibacterial activity
β-lactamase enzymes; a number of class I enzymes (e.g. Bacteroides fragilis, Proteus vulgaris, Proteus morganii, Proteus rettgeri, Enterobacter cloacae, Citrobacter freundii, Providencia species, Hafnia alvei)
  inhibition of class I β-lactamase enzymes: inhibited
β-lactamase enzymes; enzymes of gram-positive organisms (S. aureus, B. cereus) and classes II-V from gram-negative bacteria
  ability to inhibit β-lactamase enzymes: possess the ability to inhibit β-lactamase enzymes
[3]
  stability to the action of β-lactamases: stable
[4]; after its formation
  stability of the free acid: rather unstable
[4]; aqueous solution, dependence on pH
  stability in aqueous solution: rather unstable in aqueous solution outside the pH range 5.5 to 8

## O=C(O)[C@H]1/C(=C/CO)O[C@@H]2CC(=O)N21 [lithium clavulanate]
[5]; 2.5 M aqueous LiCl
  solubility: 23500 µg/mL
[5]; 3.75 M aqueous LiCl
  solubility: 10200 µg/mL
[5]; 5.0 M aqueous LiCl
  solubility: 4100 µg/mL
[5]; 6.25 M aqueous LiCl
  solubility: 1800 µg/mL
[5]; 7.5 M aqueous LiCl
  solubility: 800 µg/mL
[6]; listed as lithium salt
  pKa value of the corresponding acid: about 2.3

## O=C(O)[C@H]1/C(=C/CO)O[C@@H]2CC(=O)N21 [calcium salt]
[6]; read-out: pKa value of the corresponding acid
  pKa: ~2.4
